Source: ChEMBL document CHEMBL6153174, “Design and Synthesis of Novel Deazapurine DNMT 1 Inhibitors with In Vivo Efficacy in DLBCL” (J Med Chem, 2025)
Calls of active or inactive are those of the source. The rule behind the calls is not given here.

Key:
MV4-11 = experiment: Antiproliferative activity against human MV4-11 cells assessed as inhibition of cell viability measured after 72 hrs by MTT assay; assay type: functional, cell-based; details: MV4-11, 72 h
U-937 = experiment: Antiproliferative activity against human U-937 cells assessed as inhibition of cell viability measured after 72 hrs by MTT assay; assay type: functional, cell-based; details: U-937, 72 h
[1] = target: DNA (cytosine-5)-methyltransferase 3A (Homo sapiens, UniProt Q9Y6K1); experiment: Inhibition of DNMT3A (unknown origin) preincubated for 15 mins followed by substrate and [3H-SAM] addition and measured after 60 mins by microbeta analysis
[2] = target: DNA (cytosine-5)-methyltransferase 3B (Homo sapiens, UniProt Q9UBC3); experiment: Inhibition of DNMT3B (unknown origin) preincubated for 15 mins followed by substrate and [3H-SAM] addition and measured after 60 mins by microbeta analysis
[3] = Apparent clearance during terminal phase in Sprague-Dawley rat at 10 mg/kg, po measured upto 24 hrs by LC/MS/MS analysis; assay type: ADME, organism-based; details: in vivo, read-out: CLz/F (converted)
[4] = Cmax in Sprague-Dawley rat at 10 mg/kg, iv measured upto 24 hrs by LC/MS/MS analysis; assay type: ADME, organism-based; details: in vivo
MOLM-13 = experiment: Antiproliferative activity against human MOLM-13 cells assessed as inhibition of cell viability measured after 72 hrs by MTT assay; assay type: functional, cell-based; details: MOLM-13, 72 h
MDA-MB-231 = experiment: Antiproliferative activity against human MDA-MB-231 cells assessed as inhibition of cell viability measured after 72 hrs by MTT assay; assay type: functional, cell-based; details: MDA-MB-231, 72 h
HepG2 = experiment: Antiproliferative activity against human HepG2 cells assessed as inhibition of cell viability measured after 72 hrs by MTT assay; assay type: functional, cell-based; details: HepG2, 72 h
HT-29 = experiment: Antiproliferative activity against human HT-29 cells assessed as inhibition of cell viability measured after 72 hrs by MTT assay; assay type: functional, cell-based; details: HT-29, 72 h
[5] = Antiproliferative activity against human NK-YS cells assessed as inhibition of cell viability measured after 72 hrs by MTT assay; assay type: functional, cell-based
TMD8 [6] = experiment: Induction of cell cycle arrest in human TMD8 cells assessed as accumulation of cells at G0-G1 phase at 0.25 uM incubated for 24 hrs by PI staining based flow cytometry analysis (reference value: 40.7%); assay type: functional
TMD8 [7] = experiment: Induction of cell cycle arrest in human TMD8 cells assessed as accumulation of cells at G0-G1 phase at 0.5 uM incubated for 24 hrs by PI staining based flow cytometry analysis (reference value: 40.7%); assay type: functional
TMD8 [8] = experiment: Induction of cell cycle arrest in human TMD8 cells assessed as accumulation of cells at S phase at 0.5 uM incubated for 24 hrs by PI staining based flow cytometry analysis (reference value: 39.0%); assay type: functional
TMD8 [9] = experiment: Induction of cell cycle arrest in human TMD8 cells assessed as accumulation of cells at G2/M phase at 0.25 uM incubated for 24 hrs by PI staining based flow cytometry analysis (reference value: 20.4%); assay type: functional
TMD8 [10] = experiment: Induction of cell cycle arrest in human TMD8 cells assessed as accumulation of cells at G2/M phase at 0.5 uM incubated for 24 hrs by PI staining based flow cytometry analysis (reference value: 20.4%); assay type: functional
DOHH-2 [11] = experiment: Induction of cell cycle arrest in human DOHH-2 cells assessed as accumulation of cells at G0-G1 phase at 0.25 uM incubated for 24 hrs by PI staining based flow cytometry analysis (reference value: 27.1%); assay type: functional
DOHH-2 [12] = experiment: Induction of cell cycle arrest in human DOHH-2 cells assessed as accumulation of cells at G0-G1 phase at 0.5 uM incubated for 24 hrs by PI staining based flow cytometry analysis (reference value: 27.1%); assay type: functional
DOHH-2 [13] = experiment: Induction of cell cycle arrest in human DOHH-2 cells assessed as accumulation of cells at S phase at 0.5 uM incubated for 24 hrs by PI staining based flow cytometry analysis (reference value: 40.7%); assay type: functional
DOHH-2 [14] = experiment: Induction of cell cycle arrest in human DOHH-2 cells assessed as accumulation of cells at G2-M phase at 0.25 uM incubated for 24 hrs by PI staining based flow cytometry analysis (reference value: 27.8%); assay type: functional
DOHH-2 [15] = experiment: Induction of cell cycle arrest in human DOHH-2 cells assessed as accumulation of cells at G2/M phase incubated for 24 hrs by PI staining based flow cytometry analysis; assay type: functional; details: dose 0.25-1 µM
DOHH-2 [16] = experiment: Induction of apoptosis in human DOHH-2 cells assessed as early apoptotic cells measured after 48 hrs by annexin-V/FITC and PI staining based flow cytometry analysis; assay type: functional, cell-based; details: dose 0.25-5 µM
TMD8 [17] = experiment: Induction of apoptosis in human TMD8 cells assessed as late apoptotic cells at 1 uM measured after 48 hrs by annexin-V/FITC and PI staining based flow cytometry analysis (reference value: 5.13%); assay type: functional
TMD8 [18] = experiment: Induction of apoptosis in human TMD8 cells assessed as late apoptotic cells at 10 uM measured after 48 hrs by annexin-V/FITC and PI staining based flow cytometry analysis (reference value: 5.13%); assay type: functional
DOHH-2 [19] = experiment: Induction of apoptosis in human DOHH-2 cells assessed as early apoptotic cells at 5 uM measured after 48 hrs by annexin-V/FITC and PI staining based flow cytometry analysis (reference value: 5.69%); assay type: functional
DOHH-2 [20] = experiment: Induction of apoptosis in human DOHH-2 cells assessed as late apoptotic cells at 0.25 uM measured after 48 hrs by annexin-V/FITC and PI staining based flow cytometry analysis (reference value: 3.66%); assay type: functional
[21] = target: T1, DNA (cytosine-5)-methyltransferase 1 (Homo sapiens, UniProt P26358); experiment: Inhibition of DNMT1 in human DOHH-2 cells assessed as inhibition of 5-methylcytosine level at 10 to 1000 nM incubated for 48 hrs by Western blot analysis; assay type: cell-based; details: dose 10-1000 nM
[22] = target: T1, DNA (cytosine-5)-methyltransferase 1; experiment: Inhibition of DNMT1 in human DOHH-2 cells assessed as inhibition of H3K9 methylation level at 1 uM incubated for 48 hrs by Western blot analysis; assay type: cell-based
TMD8 [23] = experiment: Antitumor activity against human TMD8 cells xenografted in mouse model assessed as inhibition of DNA methylation at 10 mg/kg, iv administered three times a week; assay type: functional, organism-based
[24] = Subacute toxicity in Balb/C mouse assessed as effect on peripheral blood at 10 mg/kg, iv administered three times in a week for 2 weeks; assay type: organism-based; details: in vivo, 336 h
[25] = Subacute toxicity in Balb/C mouse assessed as effect on hemoglobin at 30 mg/kg, iv administered three times in a week for 2 weeks; assay type: organism-based; details: in vivo, 336 h
[26] = Subacute toxicity in Balb/C mouse assessed as effect on heart at 30 mg/kg, iv administered three times in a week for 2 weeks; assay type: organism-based; details: in vivo, 336 h
[27] = Antitumor activity against human TMD8 cells harbouring TP53 mutant xenografted in mouse model assessed as tumor inhibition rate at 10 mg/kg, iv administered three times a week relative to control; assay type: functional; set-up: scale not given: the % may be the effect or the level left
[28] = Antitumor activity against human TMD8 cells harbouring TP53 mutant xenografted in mouse model assessed as body weight change at 10 mg/kg, iv administered three times a week relative to control; assay type: functional

T1 sequence (P26358 whole entry): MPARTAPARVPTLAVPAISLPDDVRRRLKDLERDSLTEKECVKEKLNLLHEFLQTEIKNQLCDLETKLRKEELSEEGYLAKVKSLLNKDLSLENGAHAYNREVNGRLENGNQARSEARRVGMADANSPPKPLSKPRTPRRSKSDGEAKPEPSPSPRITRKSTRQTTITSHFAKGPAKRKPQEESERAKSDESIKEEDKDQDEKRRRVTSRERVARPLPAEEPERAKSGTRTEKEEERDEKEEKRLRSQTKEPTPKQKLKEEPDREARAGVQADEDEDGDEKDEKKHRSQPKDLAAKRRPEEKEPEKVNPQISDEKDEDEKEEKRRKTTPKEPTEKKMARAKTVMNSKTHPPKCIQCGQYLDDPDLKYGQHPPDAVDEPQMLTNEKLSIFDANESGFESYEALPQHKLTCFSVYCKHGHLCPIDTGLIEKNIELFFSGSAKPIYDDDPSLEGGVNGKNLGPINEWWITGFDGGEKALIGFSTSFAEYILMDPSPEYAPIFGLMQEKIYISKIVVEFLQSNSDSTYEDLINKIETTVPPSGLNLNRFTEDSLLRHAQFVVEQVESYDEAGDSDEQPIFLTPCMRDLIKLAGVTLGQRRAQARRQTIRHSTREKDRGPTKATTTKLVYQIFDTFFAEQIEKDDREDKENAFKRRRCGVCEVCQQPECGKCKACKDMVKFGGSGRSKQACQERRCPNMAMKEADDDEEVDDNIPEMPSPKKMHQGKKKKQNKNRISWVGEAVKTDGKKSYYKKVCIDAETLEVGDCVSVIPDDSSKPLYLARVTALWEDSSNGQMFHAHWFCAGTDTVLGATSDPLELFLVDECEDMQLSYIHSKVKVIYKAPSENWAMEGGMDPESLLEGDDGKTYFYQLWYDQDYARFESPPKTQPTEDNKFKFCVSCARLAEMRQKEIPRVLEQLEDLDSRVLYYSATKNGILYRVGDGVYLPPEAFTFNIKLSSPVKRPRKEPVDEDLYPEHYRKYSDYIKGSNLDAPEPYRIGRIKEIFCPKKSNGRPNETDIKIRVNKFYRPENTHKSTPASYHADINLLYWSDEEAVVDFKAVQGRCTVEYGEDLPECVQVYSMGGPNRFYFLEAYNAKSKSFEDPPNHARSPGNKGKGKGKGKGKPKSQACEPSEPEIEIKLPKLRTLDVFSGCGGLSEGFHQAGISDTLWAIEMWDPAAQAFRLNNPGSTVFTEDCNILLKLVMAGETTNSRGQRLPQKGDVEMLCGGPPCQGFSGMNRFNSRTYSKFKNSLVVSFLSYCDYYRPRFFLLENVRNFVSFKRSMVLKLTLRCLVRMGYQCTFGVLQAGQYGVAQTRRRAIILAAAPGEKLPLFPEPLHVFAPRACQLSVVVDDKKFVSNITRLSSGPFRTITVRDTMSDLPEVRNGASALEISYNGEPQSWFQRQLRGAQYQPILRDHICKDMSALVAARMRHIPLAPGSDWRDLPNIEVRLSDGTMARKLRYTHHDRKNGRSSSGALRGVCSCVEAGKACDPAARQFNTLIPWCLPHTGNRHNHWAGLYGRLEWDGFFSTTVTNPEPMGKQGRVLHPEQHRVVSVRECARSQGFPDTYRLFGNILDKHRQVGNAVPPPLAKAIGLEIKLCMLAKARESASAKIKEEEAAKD
Sequence of DNA (cytosine-5)-methyltransferase 3A (Q9Y6K1 whole entry, looked up): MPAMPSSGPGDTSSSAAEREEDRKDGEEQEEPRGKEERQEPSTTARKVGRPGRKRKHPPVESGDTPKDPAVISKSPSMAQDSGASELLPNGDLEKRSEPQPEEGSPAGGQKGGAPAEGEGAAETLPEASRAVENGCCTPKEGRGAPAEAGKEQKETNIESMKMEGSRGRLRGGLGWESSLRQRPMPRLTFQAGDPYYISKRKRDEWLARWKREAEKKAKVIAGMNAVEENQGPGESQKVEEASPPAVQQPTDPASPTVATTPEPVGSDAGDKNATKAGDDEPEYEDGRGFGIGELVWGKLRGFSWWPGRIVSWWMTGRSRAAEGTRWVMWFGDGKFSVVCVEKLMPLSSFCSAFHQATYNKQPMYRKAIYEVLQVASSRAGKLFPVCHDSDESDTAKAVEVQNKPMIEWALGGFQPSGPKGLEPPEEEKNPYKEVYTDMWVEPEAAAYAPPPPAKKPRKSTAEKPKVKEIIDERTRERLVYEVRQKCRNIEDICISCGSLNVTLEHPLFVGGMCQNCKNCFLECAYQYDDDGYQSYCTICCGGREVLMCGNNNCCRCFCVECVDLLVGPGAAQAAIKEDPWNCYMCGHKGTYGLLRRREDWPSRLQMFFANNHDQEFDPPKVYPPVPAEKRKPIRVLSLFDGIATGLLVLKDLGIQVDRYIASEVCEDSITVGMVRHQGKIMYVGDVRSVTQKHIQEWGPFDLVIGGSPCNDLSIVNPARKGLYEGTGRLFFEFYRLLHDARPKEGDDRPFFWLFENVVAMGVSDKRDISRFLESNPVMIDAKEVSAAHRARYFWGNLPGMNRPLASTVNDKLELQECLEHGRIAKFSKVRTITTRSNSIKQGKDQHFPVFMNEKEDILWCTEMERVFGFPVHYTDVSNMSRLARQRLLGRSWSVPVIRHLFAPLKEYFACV

IC50 (MV4-11): 950 nM
IC50 (U-937): 2210 nM
IC50 [1]: 14400 nM
IC50 [2]: > 20000 nM
CL/F [3]: 322 mL/min/kg
Cmax [4]: 419 ng/mL
IC50 (MOLM-13): 1060 nM
IC50 (MDA-MB-231): 3910 nM
IC50 (HepG2): 2880 nM
IC50 (HT-29): 1060 nM
inhibition [21]: Active
inhibition [22]: Active
Compound: CN1CCC(Nc2nc(-c3ccnc(F)c3)nc3c2ccn3CCCN2CCCC2)CC1
IC50 [5]: 770 nM
Activity (TMD8 [6]): 37.9%
Activity (TMD8 [7]): 39%
Activity (TMD8 [8]): 32.3%
Activity (TMD8 [9]): 24.4%
Activity (TMD8 [10]): 28.8%
Activity (DOHH-2 [11]): 28.6%
Activity (DOHH-2 [12]): 39.7%
Activity (DOHH-2 [13]): 26.6%
Activity (DOHH-2 [14]): 29.9%
Activity (DOHH-2 [15]): Dose-dependent-effect
Activity (DOHH-2 [16]): Dose-dependent-effect
Activity (TMD8 [17]): 6.88%
Activity (TMD8 [18]): 12.9%
Activity (DOHH-2 [19]): 44.7%
Activity (DOHH-2 [20]): 7.58%
Activity (TMD8 [23]): Active
Activity [24]: Non-toxic
Activity [25]: Non-toxic
Activity [26]: Non-toxic
Activity [27]: 58%
Activity [28]: -0.9%
